Test results taken from patent US20110172296A1, “MODULATION OF TRANSFORMING GROWTH FACTOR-BETA 1 EXPRESSION” (priority 2010, published 2011).
Values joined by “and” are separate entries in the source; they are usually repeats but may differ in a detail not shown here. Equal values may be shown once. In the oligonucleotide strings, read from the 5' end, every base follows the letter of its sugar. An asterisk marks phosphorothioate; unmarked linkages are phosphodiester. Other units and linkages are bracketed, terminal groups are in braces. A string of capitals states the bases alone. e = 2'-O-(2-methoxyethyl) (MOE); [5mC] = 5-methylcytosine; d = 2'-deoxy (DNA)

Tests used:
human TGF-beta1 mRNA [1] = assay: Dose-dependent antisense inhibition of human TGF-beta1 in HuVEC cells, Lipofectamine 2000, 0.9375-30 nM (Example 3); type: cell-based; settings: for percent inhibition of TGF-beta1: Lipofectamine 2000
Description: Cells were plated at a density of 5,000 cells per well and transfected using Lipofectamine™ 2000 reagent with 0.9375 nM, 1.875 nM, 3.75 nM, 7.5 nM, 15 nM, and 30 nM concentrations of antisense oligonucleotide for 4 hours, as specified in Table 3. After a recovery period of approximately 16 hours, RNA was isolated from the cells and TGF-beta1 mRNA levels were measured by quantitative real-time PCR. Human TGF-beta1 primer probe set RTS 2980 (forward sequence CTCTCCGACCTGCCACAGA, SEQ ID NO: 160; reverse sequence […], SEQ ID NO: 53; probe sequence CCCTATTCAAGACCACCCACCTTCTGGTX, SEQ ID NO: 161) was used to measure mRNA levels. TGF-beta1 mRNA levels were adjusted according to total RNA content, as measured by RIBOGREEN®. Results are presented as percent inhibition of TGF-beta1, relative to untreated control cells.

human TGF-beta1 mRNA [2] = assay: Antisense inhibition of human TGF-beta1 mRNA in HuVEC cells, single 10 nM dose, Lipofectamine 2000 (Example 2); type: cell-based; settings: for % inhibition: 10 nM oligonucleotide, HuVEC, relative to untreated control cells; for inhibition of a TGF-beta1 mRNA: threshold lists of Oligo IDs, 10 nM
How it was run: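 HuVEC cells (5,000/well) transfected with 10 nM 2-13-5 MOE gapmer (phosphorothioate, 5-methylcytosine) via Lipofectamine 2000 for 4 h, then recovered ~24 h. mRNA measured by qRT-PCR, normalized to RIBOGREEN total RNA; percent inhibition versus untreated cells.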

[3] = gapmers targeted to SEQ ID NO: 2
[4] = gapmers targeted to SEQ ID NO: 1

Substance	percent inhibition of TGF-beta1 (human TGF-beta1 mRNA [1]; 0.9375 nM) [%]	percent inhibition of TGF-beta1 (human TGF-beta1 mRNA [1]; 1.875 nM) [%]	percent inhibition of TGF-beta1 (human TGF-beta1 mRNA [1]; 3.75 nM) [%]	percent inhibition of TGF-beta1 (human TGF-beta1 mRNA [1]; 7.5 nM) [%]	percent inhibition of TGF-beta1 (human TGF-beta1 mRNA [1]; 15 nM) [%]	percent inhibition of TGF-beta1 (human TGF-beta1 mRNA [1]; 30 nM) [%]	% inhibition (human TGF-beta1 mRNA [2]; [3]) [%]	inhibition of a TGF-beta1 mRNA (human TGF-beta1 mRNA [2])	% inhibition (human TGF-beta1 mRNA [2]; [4]) [%]	IC50 (human TGF-beta1 mRNA [1]; Lipofectamine 2000, Example 3) [nM]
414058 (antisense eA*eG*dG*dT*d[5mC]*dA*dA*dG*d[5mC]*d[5mC]*dA*dT*dG*dT*dG*eG*e[5mC]*eA*e[5mC]*e[5mC]) [compound 414058]	46	65	78	88	87	81	81	60% and 65% and 70% and 75% and 80%		
414037 (antisense eG*eG*dG*dT*dG*dT*d[5mC]*d[5mC]*dT*dT*dA*dA*dA*dT*dA*e[5mC]*eA*eG*e[5mC]*e[5mC]) [compound 414037]	56	74	87	93	93	92		60% and 65% and 70% and 75% and 80% and 85%	89	
414102 (antisense eT*eT*dT*dG*dA*dA*d[5mC]*dT*dA*d[5mC]*dA*dT*dG*dG*dG*eT*e[5mC]*e[5mC]*eT*e[5mC]) [compound 414102]	36	54	70	84	87	84	86	60% and 65% and 70% and 75% and 80% and 85%		1.42
414033 (antisense e[5mC]*eT*d[5mC]*d[5mC]*dA*d[5mC]*d[5mC]*dT*dT*dG*dG*dG*d[5mC]*dT*dT*eG*e[5mC]*eG*eG*e[5mC]) [compound 414033]								60% and 65% and 70% and 75% and 80%	80	
414113 (antisense eT*e[5mC]*dT*dG*dG*dG*dA*dA*dA*dA*dA*dG*dA*dG*dT*e[5mC]*e[5mC]*eT*eG*eG) [compound 414113]							79	60% and 65% and 70% and 75%		
414046 (antisense eG*eT*dG*dA*dA*dA*d[5mC]*dA*d[5mC]*d[5mC]*dG*dA*dG*dG*dA*e[5mC]*eA*e[5mC]*e[5mC]*eT) [compound 414046]							67	60% and 65%		
413972 (antisense e[5mC]*eT*d[5mC]*dG*dT*d[5mC]*d[5mC]*d[5mC]*dT*d[5mC]*d[5mC]*dT*d[5mC]*d[5mC]*d[5mC]*eG*e[5mC]*eT*e[5mC]*e[5mC]) [compound 413972]								60%	61	
413999 (antisense eG*eG*d[5mC]*dT*d[5mC]*dA*dG*dG*dA*dG*dA*d[5mC]*dA*dG*dG*e[5mC]*e[5mC]*eG*eG*eG) [compound 413999]								60% and 65% and 70%	72	
414045 (antisense eA*eG*d[5mC]*d[5mC]*dA*dG*dT*dT*dT*d[5mC]*dT*dT*d[5mC]*dT*dG*e[5mC]*e[5mC]*eA*eG*eT) [compound 414045]							80	60% and 65% and 70% and 75% and 80%		
413983 (antisense eG*e[5mC]*dG*d[5mC]*d[5mC]*dT*d[5mC]*d[5mC]*dG*dG*d[5mC]*dT*d[5mC]*d[5mC]*d[5mC]*eA*eG*e[5mC]*eG*eG) [compound 413983]								60% and 65% and 70% and 75%	78	
